Where a name gives a salt, the structure may show the parent alone.
How the values were obtained:
eosinophil accumulation = assay: Inhibitory effect on antigen induced eosinophil accumulation (Test Example 4); assay type: in vivo, guinea pig (male Hartley); settings: po, 1 hr before antigen challenge, BALF 24 hr after; for Inhibitory effect (%) on accumulation of eosinophil: 0.1 mg/kg; for inhibition at 0.1 mg/kg: Cavia porcellus, Eosinophil;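 on all read-outs here: oral dose 0.1 mg/kg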
Protocol: Male Hartley guinea pigs weighing approximately 400 g were sensitized with ovalbumin by the method described by Engineer et al. (Engineer, D. M. et al., J. Pharmacol., 62, 61-66 (1978)), and the number of eosinophils infiltrating into the bronchoalveolar space due to antigen challenge was examined.
Briefly, the animals were exposed to the antigen (ovalbumin) for 6 min. At 24 hr. after antigen challenge, the guinea pigs were anesthetized with pentobarbital (30 mg/kg, i.p.). The trachea was cannulated by a disposable intravenous catheter, and the airway lumen (especially in the right posterior lobe) was washed with 0.9% saline (10 ml/kg) kept at 37° C. The bronchoalveolar lavage fluid (BALF) from each animal was centrifuged (150 g for 10 min at 4° C.). After removing the supernatant, the cell pellet was resuspended in HBSS (Hank's balanced solution) and a total cell count was performed using a standard hemocytometer. Differential cell counts were done on smears fixed in methanol and stained with Wright-Giemsa solution, and by light microscopy under oil immersion (×1000). The proportion of eosinophil population was expressed as a percentage of total cells, and this ratio together with the total cell count was used to calculate the total number of eosinophils. The percent inhibition of the test compounds which was administered 1 hr before antigen challenge, was calculated as follows:
Percent inhibition=[1-(C-A)/(B-A)]×100
A: negative control: mean value of cell counts in BALF from the animals with inhaled saline
B: positive control: mean value of cell counts in BALF from the animals 24 h after antigen challenge
C: cell counts of BALF for the animals pretreated with a test compound 24 h after antigen challenge

eosinophil chemotaxis = assay: Inhibitory effect of eosinophil chemotaxis to zymosan-activated serum (Test Example 4); assay type: cell-based, guinea pig; settings: for Inhibitory effect (%) on chemotaxis of eosinophil / inhibition at 0.1 µg/mL: 0.1 μg/ml, ZAS; for inhibition at 0.1 µg/mL: Cavia porcellus, Eosinophil; for potency of the R-isomer relative to the racemate: eosinophil table, R-isomer vs racemate
From the text: Eosinophils were harvested from the peritoneal cavity of polymyxin B-treated guinea pigs (body weight, approx. 400 g) according to the method described by Pincus (Pincus, S. H. et al.: Blood, 52, 127-134 (1978)). The eosinophils were separated and purified by Ficoll-paque (Pharmacia) density gradient centrifugation. Then, the eosinophil chemotaxis to zymosan-activated serum (ZAS) was investigated by a modification of the Boyden micropore filter technique (Gosset, P. et al.: Clin. Exp. Immunol., 65, 654-663 (1986)). Briefly, the assay was carried out in a 48-well microchemotaxis assembly (Neuroprobe; Cabin John, Md., U.S.A.). Cell suspensions were adjusted to 2.5×10^5 /50 μl, and placed in the upper chamber separated from the chemoattractant (ZAS) solution in the lower chamber by a 3 μm pore size polycarbonate membrane filter (Nucleopore Co., Pleasanton, U.S.A.). The cells were incubated for 10 min at 37° C. with the test compounds, prior to their addition to the chemotaxis chamber. Migration was carried out at 37° C. in humidified air with 5% CO2 for 2 h. After the incubation, the migrated eosinophils in the lower Chamber were counted by a hemocytometer.
The percentage inhibition obtained with the test compound was calculated by comparison to the positive control (migration of non-treated cells in response to the ZAS), according to the formula:
Percent inhibition=[1-(A/B)]×100
A: (migration with a test compound)-(spontaneous migration)
B: (positive control migration)-(spontaneous migration)

[1] = tested on: Passive Cutaneous Anaphylaxis (PCA); assay: Inhibitory effect on passive cutaneous anaphylaxis (PCA) in rats (Test Example 1); assay type: in vivo, rat (male SD); settings: Rattus norvegicus, po, read-out: Inhibitory rate
Protocol: Male SD rats (5 weeks old) were used as the test animals in groups, each containing 4 animals. The rats were sensitized by intradermal injection of 0.05 ml of the diluted antiserum solution in the dorsal position. 48 hours after this injection, a suspension of the test compound in an aqueous 0.5% w/v tragacanth solution was orally administered to the rats, fasted for one day, and 60 minutes later they were injected in the caudal vein with 5 ml/kg body weight of physiological saline containing 0.4% w/v egg albumin and 1.0% w/v Evans Blue.
The inhibitory rate was calculated by the following equation.
Inhibitory rate (%)=(1-B/A)×100
A: amount of exuded dye in the control group
B: amount of exuded dye in the test group.

[2] = tested on: Antigen-induced Bronchoconstriction; assay: Effect on antigen-induced bronchoconstriction in sensitized guinea pigs (Test Example 2); assay type: in vivo, guinea pig (male Hartley); settings: Cavia porcellus, po, 60 min before challenge, read-out: Inhibitory rate
Protocol: The test animals used were male guinea pigs of the Hartley strain (weighing about 400 to 500 g). These animals were sensitized according to Morris' method [H. R. Morris; Br. J. Pharmac., 67, 179-184 (1979)]. The guinea pigs were subcutaneously and intraperitoneally injected twice, each time with 25 mg of egg albumin (grade 5, Sigma) at weekly intervals. 7 days after the second of these weekly injections, the animals were fasted for one day and then exposed to an aerosol of egg albumin (10 mg/ml). All of the animals so exposed responded with convulsions, indicating respiratory distress due to airway constriction, within 6 minutes.
60 minutes before the egg albumin challenge, one of the test compounds shown in the following Table 5 was administered orally to each of the animals.

CCOC(=O)CCCN1CCN2c3ccccc3Cc3ccccc3C2C1 (racemic) [19 HCl racemate]
Inhibitory effect (%) on accumulation of eosinophil (eosinophil accumulation): 48% | Inhibitory effect (%) on chemotaxis of eosinophil (eosinophil chemotaxis): 5%

CCOC(=O)CCCN1CCN2c3ccccc3Cc3ccccc3C2C1 (racemic) [19 fumarate racemate]
Inhibitory effect (%) on accumulation of eosinophil (eosinophil accumulation): 24% | inhibition at 0.1 µg/mL (eosinophil chemotaxis): 3%

CCOC(=O)CCCCCN1CCN2c3ccccc3Cc3ccccc3C2C1 (racemic) [21 HCl racemate]
inhibition at 0.1 mg/kg (eosinophil accumulation): 37% | inhibition at 0.1 µg/mL (eosinophil chemotaxis): 23%

O=C(O)CCCN1CCN2c3ccccc3Cc3ccccc3C2C1 (racemic) [22 HCl racemate]
Inhibitory effect (%) on accumulation of eosinophil (eosinophil accumulation): 31% | Inhibitory effect (%) on chemotaxis of eosinophil (eosinophil chemotaxis): 6%

O=C(O)CCCN1CCN2c3ccccc3Cc3ccccc3C2C1 (racemic) [22 free racemate]
Inhibitory effect (%) on accumulation of eosinophil (eosinophil accumulation): 3% | inhibition at 0.1 µg/mL (eosinophil chemotaxis): 9%

O=C(O)CCCCCN1CCN2c3ccccc3Cc3ccccc3C2C1 (racemic) [24 HCl racemate]
inhibition at 0.1 mg/kg (eosinophil accumulation): 43% | inhibition at 0.1 µg/mL (eosinophil chemotaxis): 25%

CCOC(=O)CCCN1CCN2c3ccccc3Cc3ccccc3C2C1 (racemic) [Example 19, Ethyl 4-(1,2,3,4,10,14b-hexahydrodibenzo[c,f]pyrazino[1,2-a]azepin-2-yl)butanoate]
inhibition at 0.05 mg/kg [1]: 55% | inhibition at 0.2 mg/kg [1]: 61% | inhibition at 0.025 mg/kg [2]: 40% | inhibition at 0.4 mg/kg [2]: 100%

O=C(O)CCCCCN1CCN2c3ccccc3Cc3ccccc3C2C1 (racemic) [Example 24, 6-(1,2,3,4,10,14b-Hexahydrodibenzo[c,f]pyrazino[1,2-a]azepin-2-yl)hexanoic acid]
inhibition at 0.05 mg/kg [1]: 46% | inhibition at 3.1 mg/kg [1]: 74% | inhibition at 0.1 mg/kg [2]: 80% | inhibition at 0.4 mg/kg [2]: 100%

CCOC(=O)CCCN1CCN2c3ccccc3Cc3ccccc3[C@@H]2C1 [19 HCl R-isomer]
Inhibitory effect (%) on accumulation of eosinophil (eosinophil accumulation): 58% | Inhibitory effect (%) on chemotaxis of eosinophil (eosinophil chemotaxis): 43%

CCOC(=O)CCCN1CCN2c3ccccc3Cc3ccccc3[C@H]2C1 [19 HCl S-isomer]
Inhibitory effect (%) on accumulation of eosinophil (eosinophil accumulation): 41% | Inhibitory effect (%) on chemotaxis of eosinophil (eosinophil chemotaxis): 1%

CCOC(=O)CCCN1CCN2c3ccccc3Cc3ccccc3[C@@H]2C1 [19 fumarate R-isomer]
inhibition at 0.1 mg/kg (eosinophil accumulation): 62% | inhibition at 0.1 µg/mL (eosinophil chemotaxis): 55%

CCOC(=O)CCCN1CCN2c3ccccc3Cc3ccccc3[C@H]2C1 [19 fumarate S-isomer]
inhibition at 0.1 mg/kg (eosinophil accumulation): 32% | Inhibitory effect (%) on chemotaxis of eosinophil (eosinophil chemotaxis): 0%

CCOC(=O)CCCCCN1CCN2c3ccccc3Cc3ccccc3[C@@H]2C1 [21 HCl R-isomer]
inhibition at 0.1 mg/kg (eosinophil accumulation): 80% | inhibition at 0.1 µg/mL (eosinophil chemotaxis): 50% | potency of the R-isomer relative to the racemate (eosinophil chemotaxis): about double the potency

CCOC(=O)CCCCCN1CCN2c3ccccc3Cc3ccccc3[C@H]2C1 [21 HCl S-isomer]
inhibition at 0.1 mg/kg (eosinophil accumulation): 13% | inhibition at 0.1 µg/mL (eosinophil chemotaxis): 9%

O=C(O)CCCN1CCN2c3ccccc3Cc3ccccc3[C@H]2C1 [22 HCl S-isomer]
inhibition at 0.1 mg/kg (eosinophil accumulation): 47% | inhibition at 0.1 µg/mL (eosinophil chemotaxis): 5%

O=C(O)CCCCCN1CCN2c3ccccc3Cc3ccccc3[C@@H]2C1 [24 HCl R-isomer]
inhibition at 0.1 mg/kg (eosinophil accumulation): 62% | inhibition at 0.1 µg/mL (eosinophil chemotaxis): 47% | potency of the R-isomer relative to the racemate (eosinophil chemotaxis): about double the potency

O=C(O)CCCCCN1CCN2c3ccccc3Cc3ccccc3[C@H]2C1 [24 HCl S-isomer]
inhibition at 0.1 mg/kg (eosinophil accumulation): 2% | inhibition at 0.1 µg/mL (eosinophil chemotaxis): 0%

CCOC(=O)COCCN1CCN2c3ccccc3Cc3ccccc3C2C1 (centres unmarked) [Example 1]
inhibition at 0.2 mg/kg [1]: 56% | inhibition at 3.1 mg/kg [1]: 65% | inhibition at 0.025 mg/kg [2]: 20% | inhibition at 0.1 mg/kg [2]: 50%

O=C(O)COCCN1CCN2c3ccccc3Cc3ccccc3C2C1 (centres unmarked) [Example 2]
inhibition at 0.05 mg/kg [1]: 62% | inhibition at 0.8 mg/kg [1]: 74% | inhibition at 0.025 mg/kg [2]: 20% | inhibition at 0.1 mg/kg [2]: 80%

CCOC(=O)COCCN1CCN2c3ccc(Cl)cc3Cc3ccccc3C2C1 (centres unmarked) [Example 4]
inhibition at 3.1 mg/kg [1]: 63%

COC(=O)COCCN1CCN2c3ccc(Br)cc3Cc3ccccc3C2C1 (centres unmarked) [Example 5, Methyl 2-(8-bromo-1,2,3,4,10,14b-hexahydrodibenzo[c,f]pyrazino[1,2-a]azepin-2-yl)ethoxyacetate]
inhibition at 0.8 mg/kg [1]: 23% | inhibition at 3.1 mg/kg [1]: 67%

OCCOCCOCCN1CCN2c3ccccc3Cc3ccccc3C2C1 (centres unmarked) [Example 7]
inhibition at 0.8 mg/kg [1]: 50% | inhibition at 3.1 mg/kg [1]: 57% | inhibition at 12.5 mg/kg ([1]; 12.5 mg/kg): 72% | inhibition at 0.4 mg/kg [2]: 100%

O=C(O)COCCN1CCN2c3ccc(Cl)cc3Cc3ccccc3C2C1 (centres unmarked) [Example 9]
inhibition at 3.1 mg/kg [1]: 63%

O=C(O)COCCN1CCN2c3ccc(Br)cc3Cc3ccccc3C2C1 (centres unmarked) [Example 10]
inhibition at 3.1 mg/kg [1]: 53%

O=C(O)COCCN1CCN2c3ncccc3Cc3ccccc3C2C1 (centres unmarked) [Example 11, 2-(1,2,3,4,10,14b-Hexahydrobenzo[c]pyrazino[1,2-a]pyrido[5,6-c]azepin-2-yl)ethoxyacetic acid]
inhibition at 0.8 mg/kg [1]: 49% | inhibition at 3.1 mg/kg [1]: 60%

OCCCN1CCN2c3ccccc3Cc3ccccc3C2C1 (centres unmarked) [Example 16, 3-(1,2,3,4,10,14b-Hexahydrodibenzo[c,f]pyrazino[1,2-a]azepin-2-yl)propanol]
inhibition at 0.8 mg/kg [1]: 48% | inhibition at 3.1 mg/kg [1]: 63% | inhibition at 0.1 mg/kg [2]: 60% | inhibition at 0.4 mg/kg [2]: 100%

OCCCCCCN1CCN2c3ccccc3Cc3ccccc3C2C1 (centres unmarked) [Example 18, 6-(1,2,3,4,10,14b-Hexahydrodibenzo[c,f]pyrazino[1,2-a]azepin-2-yl)hexanol]
inhibition at 0.4 mg/kg [2]: 100%

CN(C)C(=O)COCCN1CCN2c3ccccc3Cc3ccccc3C2C1 (stereo not drawn) [Example 27, α-[2-(1,2,3,4,10,14b-Hexahydrodibenzo[c,f]pyrazino[1,2-a]azepin-2-yl)ethoxy]-N,N-dimethylacetamide]
inhibition at 3.1 mg/kg [1]: 69%

CCCN(CCC)C(=O)COCCN1CCN2c3ccccc3Cc3ccccc3C2C1 (stereo not drawn) [Example 31, α-[2-(1,2,3,4,10,14b-Hexahydrodibenzo[c,f]pyrazino[1,2-a]azepin-2-yl)ethoxy]-N,N-dipropylacetamide]
inhibition at 0.8 mg/kg [1]: 32% | inhibition at 3.1 mg/kg [1]: 76%

O=C(O)CN1CCN2c3ccccc3Cn3cccc3C2C1 (centres unmarked) [Prior art compound G, Sodium (1,3,4,14btetrahydro-2H,10H-pyrazino[1,2a]pyrrolo[2,1c][1,4]benzodiazepin-yl)acetate, reference compound]
inhibition at 3.1 mg/kg [1]: 28%

Reference: patent US5476848A, “14B(R) isomers of novel tetracyclic compounds having anti-allergic and anti-asthmatic activities, and their use” (Sankyo Company, Limited, priority 1989, dated 1995)
